Reference: patent US10865334B2, “Process for extracting materials from biological material” (Universiteit Leiden, priority 2010, dated 2020)
Values after ≈ are worked out from the molar mass of the structure shown.

Tests used:
[1] = solubility of flavonoids in naturally occurring deep eutectic solvents; assay type: physicochemical
Procedure: First the solubility of natural products, which are not soluble in water, was evaluated in a few selected natural deep eutectic solvents. Several flavonoids were chosen as the natural water-insoluble products, because they are one of the most abundant water-insoluble plant secondary metabolites. Up to now more than 500 flavonoids have been known. Most of these flavonoids occur in their glycosides forms (bounded to a sugar molecule) in plants. In spite of large abundance of flavonoids in plants, both the glycoside and the aglycone (non-sugar) part are not soluble in water. […] The structure of these flavonoids are shown below.

[2] = solubility data in some typical Des at 40° C.; assay type: physicochemical; settings: for solubility in GCH / solubility in H2O / solubility in LGH / solubility in PdCH / solubility in SoCH: n = 3
[3] = deep eutectic solvent LGH, organic solvent or mixture, solvent LGH (Lac:Glc:H2O 5:1:2), n = 3, read-out: solubility in LGH
[4] = deep eutectic solvent PdCH, organic solvent or mixture, solvent PdCH (1,2Prop:Ch:H20 1:1:1), n = 3, read-out: solubility in PdCH
[5] = deep eutectic solvent SoCH, organic solvent or mixture, solvent SoCH (So:Ch:H2O), n = 3, read-out: solubility in SoCH
[6] = solvent GCH (Glc:Ch:H2O 1:2.5:2.5)
[7] = deep eutectic solvent GCH, organic solvent or mixture, solvent GCH (Glc:Ch:H2O 1:2.5:2.5), n = 3, read-out: solubility in GCH
[8] = organic solvent or mixture, Solubility in Fructose + Choline chloride
[9] = organic solvent or mixture, Solubility in Glucose + Choline chloride
[10] = solvent LGH (Lac:Glc:H2O 5:1:2)
[11] = solvent PdCH (1,2Prop:Ch:H20 1:1:1)

| solubility [2, 3] [mg/mL] | solubility [2, 4] [mg/mL] | solubility [2, 5] [mg/mL] | solubility in GCH [2, 6] [mg/mL] | solubility in H2O ([2]; solvent H2O) [mg/mL] | solubility in LGH [2, 10] [mg/mL] | solubility in PdCH [2, 11] [mg/mL] | solubility in SoCH ([2]; solvent SoCH (So:Ch:H2O)) [mg/mL] | SMILES | solubility [2, 7] [mg/mL] | solubility [1, 8] [mg/mL] | solubility [1, 9] [mg/mL] | solubility ([1]; water, Solubility in Water) [mg/mL] | further results |
| --- | --- | --- | --- | --- | --- | --- | --- | --- | --- | --- | --- | --- | --- |
| – | – | – | – | – | – | – | – | C[C@@H]1O[C@@H](Oc2c(-c3ccc(O)c(O)c3)oc3cc(O)cc(O)c3c2=O)[C@H](O)[C@H](O)[C@H]1O [Quercitrin, quercetin-3-O-rhamnoside] | – | – | – | – | solubility ([1]; organic solvent or mixture, deep eutectic solvent Fructose + Choline chloride, read-out: Solubility in Fructose + Choline chloride): 11.2 ± 0.64 mg/mL; solubility ([1]; organic solvent or mixture, deep eutectic solvent Glucose + Choline chloride, read-out: Solubility in Glucose + Choline chloride): 7.81 ± 0.2 mg/mL; solubility ([1]; organic solvent or mixture, deep eutectic solvent Sucrose + Choline chloride, read-out: Solubility in Sucrose + Choline chloride): 12.7 ± 0.38 mg/mL; solubility ([1]; water, read-out: Solubility in Water): 0.159 ± 0.001 mg/mL (≈ 0.355 mM) |
| 5.39 ± 0.55 (≈ 6.31 mM) | 11.7 ± 0.68 (≈ 13.7 mM) | 0.59 ± 0.01 (≈ 0.691 mM) | 0.83 ± 0.16 (≈ 0.972 mM) | – | – | – | – | CC(=O)O[C@H]1C(=O)[C@@]2(C)[C@H]([C@H](OC(=O)c3ccccc3)[C@]3(O)C[C@H](OC(=O)[C@H](O)[C@@H](NC(=O)c4ccccc4)c4ccccc4)C(C)=C1C3(C)C)[C@]1(OC(C)=O)CO[C@@H]1C[C@@H]2O [paclitaxel] | – | – | – | – | – |
| 1.72 ± 0.09 (≈ 5.69 mM) | 205 ± 7.31 (≈ 679 mM) | 146 ± 2.82 (≈ 483 mM) | – | – | – | – | – | O=c1c(O)c(-c2ccc(O)c(O)c2)oc2cc(O)cc(O)c12 [quercetin] | 20.1 ± 0.41 (≈ 66.4 mM) | 23.3 ± 2.54 | 21.6 ± 0.94 | 0.3 ± 0.002 (≈ 0.993 mM) | Solubility in Sucrose + Choline chloride [1]: 15.63 ± 0.57 mg/mL |
| – | – | – | 27.20 ± 0.39 (≈ 29.9 mM) | 1.43 ± 0.01 (≈ 1.57 mM) | 1.24 ± 0.21 (≈ 1.36 mM) | 22.47 ± 1.00 (≈ 24.7 mM) | 14.05 ± 0.66 (≈ 15.4 mM) | O=C(/C=C/c1ccc(O)cc1)C1=C(O)[C@](O)([C@@H]2O[C@H](CO)[C@@H](O)[C@H](O)[C@H]2O)C(O)=C(/C=C2/C(=O)C(C(=O)/C=C/c3ccc(O)cc3)=C(O)[C@@](O)([C@@H]3O[C@H](CO)[C@@H](O)[C@H](O)[C@H]3O)C2=O)C1=O [carthamin] | – | – | – | – | – |
| – | – | – | 5.85 ± 0.42 (≈ 13.8 mM) | 0.15 ± 0.00 (≈ 0.353 mM) | 1.93 ± 0.31 (≈ 4.55 mM) | 78.42 ± 14.45 (≈ 185 mM) | 1.70 ± 0.01 (≈ 4.01 mM) | CC1C(=O)OC2C(O)C34C5CC(C(C)(C)C)C36C(OC(=O)C6O)OC4(C(=O)O5)C12O (centres unmarked) [ginkgolide B] | – | – | – | – | – |

| SMILES | solubility [2, 3] [mg/mL] | solubility [2, 4] [mg/mL] | solubility [2, 5] [mg/mL] | solubility in GCH [2, 6] [mg/mL] | solubility in H2O ([2]; solvent H2O) [mg/mL] | solubility in LGH [2, 10] [mg/mL] | solubility in PdCH [2, 11] [mg/mL] | solubility in SoCH ([2]; solvent SoCH (So:Ch:H2O)) [mg/mL] | solubility [2, 7] [mg/mL] | solubility [1, 8] [mg/mL] | solubility [1, 9] [mg/mL] | solubility ([1]; water, Solubility in Water) [mg/mL] | further results |
| --- | --- | --- | --- | --- | --- | --- | --- | --- | --- | --- | --- | --- | --- |
| C[C@@H]1O[C@@H](OC[C@H]2O[C@@H](Oc3c(-c4ccc(O)c(O)c4)oc4cc(O)cc(O)c4c3=O)[C@H](O)[C@@H](O)[C@@H]2O)[C@H](O)[C@H](O)[C@H]1O [rutin, quercetin-3-O-rhanmoglucoside] | 8.14 ± 0.79 (≈ 13.3 mM) | 353 ± 31.2 (≈ 578 mM) | 149 ± 2.61 (≈ 244 mM) | – | – | – | – | – | 122 ± 1.45 (≈ 199 mM) | 10.9 ± 1.7 | 4.78 ± 0.84 | < 0.001 | solubility ([2]; water, solvent H2O, n = 3, read-out: solubility in H2O): 0.028 mg/mL (≈ 0.0459 mM); solubility ([1]; organic solvent or mixture, Solubility in Sucrose + Choline chloride): 2.41 ± 0.18 mg/mL |
